# Source: patent publication US20250295648A1 (priority 2024, published 2025)
# Values joined by “and” are separate entries in the source; they are usually repeats but may differ in a detail not shown here. Identical values can stand only once.
# How the values were obtained:
# [1] = tested on: L-DOPA-induced dyskinesia in Parkinson's disease patients; assay: Unified Dyskinesia Rating Scale (UDysRS) after 150% L-DOPA challenge; details: for UDysRS Parts 3 + 4, highest score of assessment sessions, mean change from baseline / UDysRS Part 3 sum of items, average of assessment sessions, mean change from baseline / UDysRS Part 3 sum of items, highest score of assessment sessions, mean change from baseline / UDysRS Parts 3 + 4, average of assessment sessions, mean change from baseline / UDysRS Total (Parts 1 to 4), average of assessment sessions, mean change from baseline / UDysRS Total (Parts 1 to 4), highest score of assessment sessions, mean change from baseline: per-protocol set; for UDysRS Part 3 sum of items, average of assessment sessions, mean change from baseline: p < 0.05 vs placebo
# Description: Patients were rated for dyskinesia at baseline and on days 28 (at end of up-titration period) and 42 (end of stable dosing period). Because the level of dyskinesia experienced by patients can vary over time, they were given 150% (i.e., 1.5×) of their regular L-DOPA dose (up to a maximum of 250 mg) as a challenge 30 min before each dyskinesia assessment to improve comparability between patients and between visits. Patients were filmed 30, 60 and 90 min after dosing with L-DOPA (˜5 min of filming each time). LID was assessed using the Unified Dyskinesia Rating Scale (UDysRS). Changes from baseline are shown for total score (i.e., Parts 1 to 4), for total objective score (i.e., Parts 3+4), and for the sum of Part 3 objective impairment assessment scores. Because objective LID assessment was carried out at 3 time-points (30, 60 and 90 min) following L-DOPA challenge, the above parameters were analyzed based on the most severe of the three scores as well as on the average score of the 3 time points.
# The patient took 150% of their normal L-DOPA dose 30 minutes prior to the start of efficacy assessments (UDysRS) at Day 1 (Visit 2), Day 28 (Visit 6) and Day 42 (Visit 7).
# The UDysRS is a rating instrument designed to assess the core features of dyskinesia in Parkinson's Disease. The UDysRS consists of 4 parts: • r. Part I, historical disability with regard to the patient's perceptions of the impact on activities of ADL of on-dyskinesia. • s. Part II, historical disability with regard to the patient's perceptions of the impact on ADL of off-dystonia. • t. Part III, objective impairment, which assesses severity of dyskinesia, affected body parts, and type of impairment (choreic vs. dystonic). • u. Part IV, objective disability, based on an evaluation of Part III activities.
# Each item in the UDysRS is scored from 0 to 4, with a possible maximum total score of 104.
# The UDysRS assessment would be performed at baseline (Day 1, Visit 2), Day 28 and Day 42 (Visits 6 and 7) starting approximately 30 minutes after the L-DOPA challenge on these days.
# The data for all 3 assessments performed at each visit would be entered in the eCRF and the Investigator will highlight which of the assessments, corresponding to the assessment where the patient had most severe dyskinesia, that would be used in the descriptive summaries of data.
# Change from baseline in the UDysRS total score to Visit 6 (Day 28) and Visit 7 (Day 42) respectively would be summarized using descriptive statistics. […] The same analysis would be done for UDysRS total objective score Part III and IV only.
# The baseline value of the dependent variable has been included in the model as a continuous covariate.
# PD patients with LID = assay: ICIQ Overactive Bladder Module (ICIQ-OAB); format: in vivo, human; details: for ICIQ-OAB, mean change from baseline: per-protocol set
# From the text: The ICIQ-OAB provides a brief and robust measure to assess the impact of symptoms of overactive bladder on quality of life and outcome of treatment. It is a 4-item patient reported outcome covering 4 domains of bladder function: frequency, nocturia, urgency, and urge urinary incontinence. Each item is scored by frequency of 0-4, for a total score of 0-16. Ratings would be based on the previous month or since the last clinic visit. Efficacy would be assessed as change from the baseline total score.
# [2] = Visit 6 Clinic Efficacy Visit (Day 28), per protocol analysis set, N = 15
# [3] = Visit 7 Clinic Efficacy Visit (Day 42), per protocol analysis set, N = 15
# [4] = days 28 and 42, within NLX-112 group
# [5] = individual patients A-E co-treated with amantadine
# [6] = per-protocol set (n = 15), Baseline
# [7] = Δ D 28 (end of up-titration), p < 0.01 vs baseline
# [8] = Δ D 42 (end of stable dosing), p < 0.001 vs baseline
# [9] = Δ D 42 (end of stable dosing), p < 0.01 vs baseline
structure (smiles),measurement,setting,value
"Cc1ccc(CNCC2(F)CCN(C(=O)c3ccc(F)c(Cl)c3)CC2)nc1 [NLX-112, (3-chloro-4-fluoro-phenyl)-[4-fluoro-4-{[(5-methyl-pyridin-2-ylmethyl)-amino]-methyl}piperidin-1-yl]methanone]","UDysRS Parts 1, 2, 3, and 4 average, absolute change from baseline, median",[1]; [2],−3.00
same,"UDysRS Parts 1, 2, 3, and 4 average, collected value, mean",[1]; [2],25.33
same,"UDysRS Parts 1, 2, 3, and 4 average, collected value, median",[1]; [2],25.33
same,"UDysRS Parts 1, 2, 3, and 4 average, relative change from baseline (%), mean",[1]; [2],−9.33%
same,"UDysRS Parts 1, 2, 3, and 4 average, relative change from baseline (%), median",[1]; [2],−10.6%
same,"UDysRS Parts 1, 2, 3, and 4 most severe, absolute change from baseline, mean",[1]; [2],−4.1
same,"UDysRS Parts 1, 2, 3, and 4 most severe, absolute change from baseline, median",[1]; [2],−2.0
same,"UDysRS Parts 1, 2, 3, and 4 most severe, collected value, mean",[1]; [2],27.5
same,"UDysRS Parts 1, 2, 3, and 4 most severe, collected value, median",[1]; [2],28.0
same,"UDysRS Parts 1, 2, 3, and 4 most severe, relative change from baseline (%), mean",[1]; [2],−10.2%
same,"UDysRS Parts 1, 2, 3, and 4 most severe, relative change from baseline (%), median",[1]; [2],−6.45%
same,"UDysRS Parts 3 and 4 average, absolute change from baseline, mean",[1]; [2],−2.49
same,"UDysRS Parts 3 and 4 average, absolute change from baseline, median",[1]; [2],−1.67
same,"UDysRS Parts 3 and 4 average, collected value, mean",[1]; [2],11.60
same,"UDysRS Parts 3 and 4 average, collected value, median",[1]; [2],10.33
same,"UDysRS Parts 3 and 4 average, relative change from baseline (%), mean",[1]; [2],−17.3%
same,"UDysRS Parts 3 and 4 average, relative change from baseline (%), median",[1]; [2],−20.0%
same,"UDysRS Parts 3 and 4 most severe, absolute change from baseline, mean",[1]; [2],−1.7
same,"UDysRS Parts 3 and 4 most severe, absolute change from baseline, median",[1]; [2],−1.0
same,"UDysRS Parts 3 and 4 most severe, collected value, mean",[1]; [2],13.8
same,"UDysRS Parts 3 and 4 most severe, collected value, median",[1]; [2],12.0
same,"UDysRS Parts 3 and 4 most severe, relative change from baseline (%), mean",[1]; [2],−15.8%
same,"UDysRS Parts 3 and 4 most severe, relative change from baseline (%), median",[1]; [2],−8.33%
same,"UDysRS Parts 1, 2, 3, and 4 average, absolute change from baseline, mean",[1]; [3],−6.51
same,"UDysRS Parts 1, 2, 3, and 4 average, absolute change from baseline, median",[1]; [3],−7.67
same,"UDysRS Parts 1, 2, 3, and 4 average, collected value, mean",[1]; [3],23.64
same,"UDysRS Parts 1, 2, 3, and 4 average, collected value, median",[1]; [3],23.00
same,"UDysRS Parts 1, 2, 3, and 4 average, relative change from baseline (%), mean",[1]; [3],−19.5%
same,"UDysRS Parts 1, 2, 3, and 4 average, relative change from baseline (%), median",[1]; [3],−21.9%
same,"UDysRS Parts 1, 2, 3, and 4 most severe, absolute change from baseline, mean",[1]; [3],−6.3
same,"UDysRS Parts 1, 2, 3, and 4 most severe, absolute change from baseline, median",[1]; [3],−8.0
same,"UDysRS Parts 1, 2, 3, and 4 most severe, collected value, mean",[1]; [3],25.3
same,"UDysRS Parts 1, 2, 3, and 4 most severe, collected value, median",[1]; [3],24.0
same,"UDysRS Parts 1, 2, 3, and 4 most severe, relative change from baseline (%), mean",[1]; [3],−19.0%
same,"UDysRS Parts 1, 2, 3, and 4 most severe, relative change from baseline (%), median",[1]; [3],−25.8%
same,"UDysRS Parts 3 and 4 average, absolute change from baseline, mean",[1]; [3],−3.31
same,"UDysRS Parts 3 and 4 average, absolute change from baseline, median",[1]; [3],−3.33
same,"UDysRS Parts 3 and 4 average, collected value, mean",[1]; [3],10.78
same,"UDysRS Parts 3 and 4 average, collected value, median",[1]; [3],9.67
same,"UDysRS Parts 3 and 4 average, relative change from baseline (%), mean",[1]; [3],−25.3%
same,"UDysRS Parts 3 and 4 average, relative change from baseline (%), median",[1]; [3],−31.5%
same,"UDysRS Parts 3 and 4 most severe, absolute change from baseline, mean",[1]; [3],−3.1
same,"UDysRS Parts 3 and 4 most severe, absolute change from baseline, median",[1]; [3],−4.0
same,"UDysRS Parts 3 and 4 most severe, collected value, mean",[1]; [3],12.4
same,"UDysRS Parts 3 and 4 most severe, collected value, median",[1]; [3],11.0
same,"UDysRS Parts 3 and 4 most severe, relative change from baseline (%), mean",[1]; [3],−21.0%
same,"UDysRS Parts 3 and 4 most severe, relative change from baseline (%), median",[1]; [3],−31.6%
same,"UDysRS sum of Part 3 items, average of all 3 assessments, NLX-112 vs placebo",[1]; day 28 and day 42,significantly greater change from baseline
same,"net reduction in UDysRS total score, more than placebo",[1]; day 42,3.9 points
same,"UDysRS sum of Part 3 items, most severe assessment, vs baseline",[1]; [4],significant reduction
same,"UDysRS total score based on the average of 3 assessments, vs baseline",[1]; [4],significant reduction
same,"UDysRS Part 3 + 4, Δ from baseline",[1]; [5],+3 and +2 and −11 and −6 (2×)
same,"UDysRS Total, Δ from baseline",[1]; [5],−2 and +7 and −11 and −8 and −6
same,amantadine-using patients with numerical reductions in UDysRS total score and total objective score,[1]; of the 5 amantadine-using patients on NLX-112,3
same,"UDysRS Part 3 sum of items, average of assessment sessions, mean",[1]; [6],21.5
same,"UDysRS Part 3 sum of items, highest score of assessment sessions, mean",[1]; [6],24.7
same,"UDysRS Parts 3 + 4, average of assessment sessions, mean",[1]; [6],14.1
same,"UDysRS Parts 3 + 4, highest score of assessment sessions, mean",[1]; [6],15.5
same,"UDysRS Total (Parts 1 to 4), average of assessment sessions, mean",[1]; [6],30.1
same,"UDysRS Total (Parts 1 to 4), highest score of assessment sessions, mean",[1]; [6],31.6
same,"UDysRS Parts 3 + 4, highest score of assessment sessions, mean change from baseline",[1]; Δ D 28 (end of up-titration),−1.7
same,"UDysRS Part 3 sum of items, average of assessment sessions, mean change from baseline","[1]; Δ D 28 (end of up-titration), p < 0.001 vs baseline",−5.5
same,"UDysRS Part 3 sum of items, highest score of assessment sessions, mean change from baseline",[1]; [7],−5.5
same,"UDysRS Parts 3 + 4, average of assessment sessions, mean change from baseline",[1]; [7],−2.5
same,"UDysRS Total (Parts 1 to 4), average of assessment sessions, mean change from baseline",[1]; [7],−4.8
same,"UDysRS Total (Parts 1 to 4), highest score of assessment sessions, mean change from baseline","[1]; Δ D 28 (end of up-titration), p < 0.05 vs baseline",−4.1
same,"UDysRS Part 3 sum of items, average of assessment sessions, mean change from baseline","[1]; Δ D 42 (end of stable dosing), p < 0.0001 vs baseline",−7.1
same,"UDysRS Part 3 sum of items, highest score of assessment sessions, mean change from baseline",[1]; [8],−7.8
same,"UDysRS Parts 3 + 4, average of assessment sessions, mean change from baseline",[1]; [8],−3.3
same,"UDysRS Total (Parts 1 to 4), average of assessment sessions, mean change from baseline",[1]; [8],−6.5
same,"UDysRS Parts 3 + 4, highest score of assessment sessions, mean change from baseline",[1]; [9],−3.1
same,"UDysRS Total (Parts 1 to 4), highest score of assessment sessions, mean change from baseline",[1]; [9],−6.3
same,incontinence (ICIQ-OAB),PD patients with LID; Days 28 or 42,no consistent statistically significant effect
same,"ICIQ-OAB, mean",PD patients with LID; [6],18.3
same,"ICIQ-OAB, mean change from baseline",PD patients with LID; Δ D 28 (end of up-titration),0.7
same,"ICIQ-OAB, mean change from baseline",PD patients with LID; Δ D 42 (end of stable dosing),−0.8
